pEC50: −log10 of the molar value. Read-outs that look alike come from different tables or passages of the source.
Key:
M1 muscarinic receptor = molecular target: T1, M1 muscarinic receptor (Homo sapiens, UniProt P11229); experiment: Functional mobilization of intracellular calcium (FLIPR) in M1-CHO cells; type: cell-based
T1 construct: expressed in transfected cells; host or cells: CHO (M1-CHO)
T1 sequence (P11229 1-460): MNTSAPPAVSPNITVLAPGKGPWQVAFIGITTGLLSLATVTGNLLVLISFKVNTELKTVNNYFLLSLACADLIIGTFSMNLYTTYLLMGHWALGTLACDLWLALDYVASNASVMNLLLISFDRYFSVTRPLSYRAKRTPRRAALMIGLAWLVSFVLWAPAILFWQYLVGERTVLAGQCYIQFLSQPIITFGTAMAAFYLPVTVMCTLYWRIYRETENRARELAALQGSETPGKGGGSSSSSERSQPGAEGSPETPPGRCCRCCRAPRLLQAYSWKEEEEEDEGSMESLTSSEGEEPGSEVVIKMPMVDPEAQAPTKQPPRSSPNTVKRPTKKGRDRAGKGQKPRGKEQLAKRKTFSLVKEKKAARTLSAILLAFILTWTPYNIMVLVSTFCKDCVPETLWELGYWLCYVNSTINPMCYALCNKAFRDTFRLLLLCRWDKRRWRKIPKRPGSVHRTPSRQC
Outline: (§1)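 FLIPR Ca2+ read, ex 488/em 540 nm, 60 s. Recombinant CHO lines (M1 or M4), dye-loaded Fluo-3 AM 60-90 min at 37° C, probenecid 1 mM, pH 7.4. Agonist: compound alone; inhibition: 15 min compound pre-incubation, then carbachol at EC80 for that subtype.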

M4 muscarinic receptor = molecular target: T2, M4 muscarinic receptor (Homo sapiens, UniProt P08173); experiment: Functional mobilization of intracellular calcium (FLIPR) in M4-CHO cells; type: cell-based
T2 construct: expressed in transfected cells; host or cells: CHO (M4-CHO)
T2 sequence (P08173 1-479): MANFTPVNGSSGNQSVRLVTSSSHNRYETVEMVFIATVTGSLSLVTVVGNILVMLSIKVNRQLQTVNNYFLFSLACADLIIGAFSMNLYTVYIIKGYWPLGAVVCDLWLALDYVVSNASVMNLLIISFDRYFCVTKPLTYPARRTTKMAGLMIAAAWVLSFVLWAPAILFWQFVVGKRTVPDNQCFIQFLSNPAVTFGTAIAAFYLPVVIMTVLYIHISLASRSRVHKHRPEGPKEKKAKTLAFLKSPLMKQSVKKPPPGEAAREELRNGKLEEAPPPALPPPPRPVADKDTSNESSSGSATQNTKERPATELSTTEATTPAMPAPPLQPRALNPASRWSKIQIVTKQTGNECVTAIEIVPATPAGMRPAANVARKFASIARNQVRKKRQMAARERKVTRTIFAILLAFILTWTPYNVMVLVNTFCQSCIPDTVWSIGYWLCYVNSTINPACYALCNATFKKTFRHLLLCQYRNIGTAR
Outline: as §1

[1] = Table 4, 100% efficacy is the maximum response obtained with the Carbachol control
[2] = Table 4, modulating M1 receptor
[3] = Table 4, modulating M4 receptor
[4] = Table 4, M1 receptor, calcium mobilization (FLIPR)
[5] = Table 4, M4 receptor, calcium mobilization (FLIPR)
[6] = M1 receptor, calcium mobilization
[7] = M1 receptor, calcium mobilization, read-out: M1 Efficacy
[8] = M4 receptor, calcium mobilization
[9] = M4 receptor, calcium mobilization, read-out: M4 Efficacy

SMILES | Emax (M1 muscarinic receptor; [1]) [%] | M1 Activity (M1 muscarinic receptor; [2]) | Emax (M4 muscarinic receptor; [1]) [%] | M4 Activity (M4 muscarinic receptor; [3]) | M1 Activity (M1 muscarinic receptor; [6]) | Emax (M1 muscarinic receptor; [7]) [%] | M4 Activity (M4 muscarinic receptor; [8]) | Emax (M4 muscarinic receptor; [9]) [%] | further results
CC(=O)NC1CCC2(CCN(CC3CCOCC3)CC2)c2ccccc21 (centres unmarked) [compound 616] | > 100 | xxx (activity was measured to be less than 2.0 μM) | 25 to 100 | x (activity was measured to be greater than 5.0 μM) |  |  |  |  | 
CC(=O)N1CC2(CCN(C3CC4CCC(C3)N4C(=O)OCC3CC3)CC2)c2ccccc21 (centres unmarked) [compound 439] | 25 to 100 | xxx (activity was measured to be less than 2.0 μM) | 25 to 100 | xxx (activity was measured to be less than 2.0 μM) |  |  |  |  | 
CCOC(=O)N1CCC(N2CCC3(CC2)CN(c2ccc(C)nn2)c2ccc(F)cc23)CC1 [compound 942] | > 100 |  | 25 to 100 |  |  |  |  |  | M1 Activity (M1 muscarinic receptor; [4]): xxx (activity was measured to be less than 2.0 μM); M4 Activity (M4 muscarinic receptor; [5]): xxx (activity was measured to be less than 2.0 μM)
Cc1ccc2c(c1)C1(CCN(C3CC4CCC3C4)CC1)CN2S(=O)(=O)c1ccccc1 (centres unmarked) [compound 354] |  |  |  |  | x (activity was measured to be greater than 1.0 μM) | 65 to 85 | x (activity was measured to be greater than 1.0 μM) | 65 to 85 | 
Cc1noc(C)c1C(=O)N1CCC(N2CCC3(CC2)CN(C(=O)N(C)C)c2ccc(F)cc23)CC1 [compound 572] | 25 to 100 | xx (activity was measured to be between 2.0 μM and 5.0 μM) | < 25 | x (activity was measured to be greater than 5.0 μM) |  |  |  |  | 
CCOC(=O)N1CCC(N2CCC3(CC2)CN(C(=O)OC)c2ccc(F)cc23)CC1 [compound 173] |  |  |  |  | xxx (activity was measured to be less than 0.1 μM) | 65 to 85 | xx (activity was measured to be between 0.1 μM and 1.0 μM) | > 85 | 
CCC(=O)N1CCC(N2CCC3(CC2)CN(C(=O)N(C)C)c2ccc(F)cc23)CC1 [compound 464] | 25 to 100 | xx (activity was measured to be between 2.0 μM and 5.0 μM) | 25 to 100 | xx (activity was measured to be between 2.0 μM and 5.0 μM) |  |  |  |  | 
CCOC(=O)N1CCC(N2CCC3(CC2)CN(C(C)=O)c2ccc(-c4ccccc4OC)cc23)CC1 [compound 150] |  |  |  |  | xxx (activity was measured to be less than 0.1 μM) | 65 to 85 | x (activity was measured to be greater than 1.0 μM) | > 85 | 
C#CCOC(=O)N1CCC(CN2CCC3(CC2)C[C@H](NC(C)=O)c2ccccc23)CC1 [compound 364] |  |  |  |  | xxx (activity was measured to be less than 0.1 μM) | > 85 | x (activity was measured to be greater than 1.0 μM) | < 65 | 
CCOC(=O)N1CCC(N2CCC3(CC2)C(=O)Nc2ccccc23)CC1 [compound 191] |  |  |  |  | xxx (activity was measured to be less than 0.1 μM) | 65 to 85 | x (activity was measured to be greater than 1.0 μM) | 65 to 85 | 
CCOC(=O)N1CCC(N2CCC3(CC2)CN(C(=O)OCCOC)c2ccc(F)cc23)CC1 [compound 38] |  |  |  |  | xxx (activity was measured to be less than 0.1 μM) | > 85 | xxx (activity was measured to be less than 0.1 μM) | > 85 | 
O=C(N[C@H]1CC2(CCN(CC3CCCCC3)CC2)c2ccccc21)N1CCCC1 [compound 946] | < 25 |  | < 25 |  |  |  |  |  | M1 Activity (M1 muscarinic receptor; [4]): x (activity was measured to be greater than 5.0 μM); M4 Activity (M4 muscarinic receptor; [5]): xxx (activity was measured to be less than 2.0 μM)
CC(=O)N1CC2(CCN(C3CC4CCC(C3)N4C(=O)OCC(C)(C)C)CC2)c2ccccc21 (centres unmarked) [compound 476] | < 25 | x (activity was measured to be greater than 5.0 μM) | < 25 | x (activity was measured to be greater than 5.0 μM) |  |  |  |  | 
CC(=O)CN1CCC(N2CCC3(CC2)CN(C(C)=O)c2ccc(F)cc23)CC1 [compound 697] | 25 to 100 | x (activity was measured to be greater than 5.0 μM) | < 25 | x (activity was measured to be greater than 5.0 μM) |  |  |  |  | 
CCOC(=O)N1C2CCC1CC(N1CCC3(CC1)CN(C(C)=O)c1ccc(OC(F)(F)F)cc13)C2 (centres unmarked) [compound 466] | 25 to 100 | xxx (activity was measured to be less than 2.0 μM) | 25 to 100 | xxx (activity was measured to be less than 2.0 μM) |  |  |  |  | 
CCNC(=O)N1C2CCC1CC(N1CCC3(CC1)COc1ccc(F)cc13)C2 (centres unmarked) [compound 219] |  |  |  |  | x (activity was measured to be greater than 1.0 μM) | 65 to 85 | x (activity was measured to be greater than 1.0 μM) | < 65 | 
CCOC(=O)N1C2CCC1CC(N1CCC3(CC[C@H](N4CCCC4=O)c4ccccc43)CC1)C2 (some centres unmarked) [compound 1014] | 25 to 100 |  | 25 to 100 |  |  |  |  |  | M1 Activity (M1 muscarinic receptor; [4]): xxx (activity was measured to be less than 2.0 μM); M4 Activity (M4 muscarinic receptor; [5]): xxx (activity was measured to be less than 2.0 μM)
COCCOC(=O)N1C2CCC1CC(N1CCC3(CC1)C(=O)Nc1ccccc13)C2 (centres unmarked) [compound 71] |  |  |  |  | xxx (activity was measured to be less than 0.1 μM) | < 65 | xx (activity was measured to be between 0.1 μM and 1.0 μM) | < 65 | 
CCOC(=O)N1C2CCC1CC(N1CCC3(CC1)C(=O)Nc1ccccc13)C2 (centres unmarked) [compound 199] |  |  |  |  | xx (activity was measured to be between 0.1 μM and 1.0 μM) | 65 to 85 | x (activity was measured to be greater than 1.0 μM) | < 65 | 
CCOC(=O)N1C2CCC1CC(N1CCC3(C[C@H](NC(C)=O)c4cc(F)ccc43)C1)C2 (some centres unmarked) [compound 928] | 25 to 100 |  | 25 to 100 |  |  |  |  |  | M1 Activity (M1 muscarinic receptor; [4]): xxx (activity was measured to be less than 2.0 μM); M4 Activity (M4 muscarinic receptor; [5]): xxx (activity was measured to be less than 2.0 μM)
CC(=O)N[C@@H]1CC2(CCN(C3CCOCC3)CC2)c2ccccc21 [compound 437] | < 25 | x (activity was measured to be greater than 5.0 μM) | < 25 | x (activity was measured to be greater than 5.0 μM) |  |  |  |  | 
C[C@@H](O)CC(=O)N1CCC(N2CCC3(CC2)CN(C(=O)N(C)C)c2ccc(F)cc23)CC1 [compound 463] | 25 to 100 | x (activity was measured to be greater than 5.0 μM) | < 25 | x (activity was measured to be greater than 5.0 μM) |  |  |  |  | 
Fc1ccc2c(c1)C1(CCN(C3CC4CCC(C4)C3)CC1)CN2 (centres unmarked) [compound 377] |  |  |  |  |  |  |  |  | pEC50 (M1 muscarinic receptor; M1-CHO cells, calcium mobilization (FLIPR)): > 7.00; Emax (M1 muscarinic receptor; M1-CHO cells, calcium mobilization (FLIPR), read-out: M1 Efficacy): 65 to 85%; pEC50 (M4 muscarinic receptor; M4-CHO cells, calcium mobilization (FLIPR)): 6.00 to 7.00; Emax (M4 muscarinic receptor; M4-CHO cells, calcium mobilization (FLIPR), read-out: M4 Efficacy): 65 to 85%
